Experimental data published in ChEMBL document CHEMBL1126515 (Bioorg Med Chem Lett, 1993).

Columns and labels:
[1] = biological target: T1, Cholecystokinin receptor type A (Rattus norvegicus, UniProt P30551)
T1 sequence (P30551 whole entry): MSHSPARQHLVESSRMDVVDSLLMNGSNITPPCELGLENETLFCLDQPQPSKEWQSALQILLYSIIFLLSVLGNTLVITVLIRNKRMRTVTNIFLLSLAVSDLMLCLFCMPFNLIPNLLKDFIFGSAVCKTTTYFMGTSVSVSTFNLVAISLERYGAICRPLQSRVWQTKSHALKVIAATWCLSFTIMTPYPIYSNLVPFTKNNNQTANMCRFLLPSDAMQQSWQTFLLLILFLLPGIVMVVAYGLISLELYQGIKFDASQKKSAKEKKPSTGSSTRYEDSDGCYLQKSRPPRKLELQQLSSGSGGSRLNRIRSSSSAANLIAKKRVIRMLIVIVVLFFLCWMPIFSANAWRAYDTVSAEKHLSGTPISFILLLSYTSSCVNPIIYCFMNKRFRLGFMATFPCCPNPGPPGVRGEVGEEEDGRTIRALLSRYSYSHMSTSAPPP
Description: Compound measured for half-maximal inhibition of specific binding of [125I]-Bolton Hunter CCK-26-33 to CCK-A receptor in the rat pancreas.

[2] = biological target: T2, Gastrin/cholecystokinin type B receptor (Mus musculus, UniProt P56481); assay: Compound measured for half-maximal inhibition of specific binding of [125I]bolton Hunter CCK-26-33 to CCK-B receptor in the mouse cerebral cortex.; type: tissue-based
T2 sequence (P56481 whole entry): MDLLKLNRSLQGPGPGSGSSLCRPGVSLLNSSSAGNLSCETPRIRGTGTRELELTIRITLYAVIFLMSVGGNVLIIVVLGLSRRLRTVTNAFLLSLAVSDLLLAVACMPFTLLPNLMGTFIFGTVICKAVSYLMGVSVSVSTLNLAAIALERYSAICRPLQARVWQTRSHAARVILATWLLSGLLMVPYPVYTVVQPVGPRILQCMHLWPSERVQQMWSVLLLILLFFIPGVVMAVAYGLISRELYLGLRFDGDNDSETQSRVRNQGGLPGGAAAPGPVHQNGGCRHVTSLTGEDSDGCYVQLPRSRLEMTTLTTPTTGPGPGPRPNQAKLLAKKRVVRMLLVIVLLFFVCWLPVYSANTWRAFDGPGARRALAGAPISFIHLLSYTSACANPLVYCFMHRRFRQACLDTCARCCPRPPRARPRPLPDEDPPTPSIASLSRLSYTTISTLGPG

Structure (SMILES)	IC50 [1] [nM]	IC50 [2] [nM]
C[C@](Cc1c[nH]c2ccccc12)(NC(=O)OC1C2CC3CC(C2)CC1C3)C(=O)N[C@H](CC(=O)O)Cc1ccccc1 (some centres undefined)	30	–
O=C(O)C[C@@H](Cc1ccccc1)NC(=O)/C(=C/c1c[nH]c2ccccc12)NC(=O)OC1C2CC3CC(C2)CC1C3 (some centres undefined)	3.7	99
O=C(O)C[C@@H](Cc1ccccc1)NC(=O)C(=Cc1c[nH]c2ccccc12)NC(=O)OC1C2CC3CC(C2)CC1C3 (some centres undefined)	3.9	60
O=C(O)C[C@H](Cc1ccccc1)NC(=O)C(=Cc1c[nH]c2ccccc12)NC(=O)OC1C2CC3CC(C2)CC1C3 (some centres undefined)	18	0.3
O=C(O)C[C@H](Cc1ccccc1)NC(=O)/C(=C/c1c[nH]c2ccccc12)NC(=O)OC1C2CC3CC(C2)CC1C3 (some centres undefined)	550	13
